Source: patent publication US20030229048A1, “Methods and compositions for inhibition of irritation by disaccharide and metal ions” (priority 2002, published 2003)

Columns and labels:
Assay type in all cases: cell-based, Human
[1] = system: IL-1α; test: IL-1α release (ELISA) in keratinocyte cells stimulated with methyl salicylate; conditions: for inhibition of MS induced IL-1α release: summary statement
Protocol: (§1) Reagents methyl salicylate, ethacrynic acid, trehalose A, B, and C were obtained from Sigma-Aldrich (St. Louis, Mo.). Trehaloses were dissolved in keratinocyte media. Methyl salicylate was diluted in keratinocyte media. Ethacrynic acid was dissolved in DMSO. Keratinocyte cells were grown to 100% confluency as per the instructions given by ATCC. Then the cells were trypsinized to dislodge cells and spun at 3000 rpm for 3 min. The supernatant was aspirated and the cells were re-suspended in fresh media at a density of 1.0×10^6 cells per mL. The cell suspension was the pipetted into a 96-well plate (200 ul of per well) and cells were incubated overnight at 37° C. The next day morning media was aspirated, and 100 uL of fresh medium containing methyl salicylate (2%) was added to all the wells except for the (−) control wells. No MS was included in the (−) control wells. Then 100 uL of medium containing the various test reagents were added to the wells so that the final concentrations were as indicated in FIGS. 2-7. The 96-well plate was then incubated. After incubation for four hours at 36° C., the supernatant from the wells was transferred to centrifuge tubes and centrifuged to remove the cell debris. Then the presence of IL-1α was determined using ELISA kit (R&D systems, Inc.) as per the manufacturer's specifications. The cells remaining in the wells were treated with pre-warmed media containing MTT solution and incubated for four hours. Then the formazan product (metabolic product of MTT) in the wells was solubilized and the absorbance was measured using a plate reader.
Human keratinocytes were stimulated with MS in the absence or the presence of trehalose compounds, to find an optimal concentration of trehalose at which IL- 1α production is reduced by half compared to the positive control.

[2] = system: IL-1α; test: as above; conditions: substance alone; earlier work of the applicant
[3] = system: Keratinocyte cells; test: MTT assay, cytotoxicity / cell viability of keratinocyte cells
Protocol: as §1, with “After incubation for four hours at 36° C., the supernatant from the wells was transferred to centrifuge tubes and centrifuged to remove the cell debris.” left out, “The cells remaining in the wells were treated with pre-warmed media containing MTT solution and incubated for four hours.” left out, “reader. […]” for “reader.”

## C=C(CC)C(=O)c1ccc(OCC(=O)O)c(Cl)c1Cl [Ethacrynic Acid, reference compound]
[1]; concentration not given
  inhibition of MS induced IL-1α release: inhibited the IL-1α release by MS
[1]; test substance at 0.16%, FIG. 2
  reduction in IL-1α levels compared to MS 1% (positive control): over 50%

## COC(=O)c1ccccc1O [MS, Methyl Salicylate]
[2]
  release of primary cytokines, especially IL-1α, in epidermal keratinocytes: stimulates release

## OC[C@H]1O[C@H](O[C@H]2O[C@H](CO)[C@@H](O)[C@H](O)[C@H]2O)[C@H](O)[C@@H](O)[C@@H]1O [Trehalose A, trehalose]
[1]; low concentrations of 0.1-2.5%
  effect on IL-1α levels, MS stimulated: neither trehalose A nor B showed any effect
[1]; concentration not stated, listed as trehalose A
  inhibition of MS induced IL-1α release: capable of inhibiting MS induced IL-1α release
[1]; test substance at 2.5%, FIG. 2
  reduction in IL-1α levels compared to MS 1% (positive control): no effect
[1]; test substance at 5%, FIG. 2
  reduction in IL-1α levels compared to MS 1% (positive control): much lower levels of reduction

## OC[C@H]1O[C@H](O[C@H]2O[C@H](CO)[C@@H](O)[C@H](O)[C@H]2O)[C@H](O)[C@@H](O)[C@@H]1O [Trehalose B, trehalose]
[1]; FIG. 5, lower concentrations
  effect on IL-1α levels in Keratinocyte cells stimulated by 1% Methyl Salicylate: no effect
[1]; any concentrations that were tested, FIGS. 2 and 3
  effect on IL-1α levels in Keratinocyte cells stimulated by 1% Methyl Salicylate: no effect
[1]; at any of 2.5%, 5%, 10%, FIG. 2
  effect on IL-1α levels compared to MS 1% (positive control): no effect
[1]; concentration not stated, listed as trehalose B
  inhibition of MS induced IL-1α release: no effect

## OC[C@H]1O[C@H](O[C@H]2O[C@H](CO)[C@@H](O)[C@H](O)[C@H]2O)[C@H](O)[C@@H](O)[C@@H]1O [Trehalose C, trehalose]
[1]; concentration not stated, listed as trehalose C
  inhibition of MS induced IL-1α release: no effect

## [O]=[Zn] [Zinc Oxide]
[1]; FIG. 5, lower concentrations
  effect on IL-1α levels in Keratinocyte cells stimulated by 1% Methyl Salicylate: significant dose dependent decrease
[1]; concentration levels 10%-1.25%, FIG. 4
  IL-1α levels in Keratinocyte cells stimulated with 1% Methyl Salicylate: large decrease
[1]; high concentrations, FIG. 4
  MS stimulated IL-1α levels: dramatic reduction
[1]; concentration not given
  inhibition of MS induced IL-1α release: able to block MS induced IL-1α production as effectively as trehalose A
[1]; test substance at 0.000125%, FIG. 5
  reduction in IL-1α concentrations induced by Methyl Salicylate: greater than 50%
[3]; concentrations at which ZnO inhibited MS stimulated IL-1α release, FIG. 7
  MTT concentration levels in Keratinocyte cells (cell viability): no effect
[3]; high concentrations of zinc oxide, FIG. 4 experiment
  state of the cells: the cells were not active
